Tests used:
Settings in all cases: main component drawn
[1] = test system: S. pneumoniae D39V; test: Bliss interaction score (quartile over a dose matrix) (fitness difference); higher = more antagonism (negative = synergy)
How it was run: (§1)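 Combination data were used to infer fitness under each single drug. Fitness is the OD595 at entry into stationary phase divided by the robust mean of the plate's no-drug wells, with a cap of 1. The Bliss score is the observed minus the expected product fitness, summarised by quartiles over technical, biological and donor/recipient replicates.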

[2] = test system: S. aureus Newman; test: as above
How it was run: as §1

[3] = test system: B. subtilis 168; test: as above
How it was run: as §1

[4] = test system: S. aureus DSM 20231; test: as above
How it was run: as §1

[5] = test system: S. pneumoniae D39V; test: fitness (endpoint OD595 vs no drug) (fraction); higher = more growth
How it was run: (§2)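 Cultures at OD595 0.01 were dispensed into 384-well plates in TSB, LB Lennox or CY and incubated at 37 °C. Every 30 min for 14 h, OD595 was read and corrected by the first reading. Fitness is the optical density at entry into stationary phase relative to the robust mean of no-drug control wells, capped at 1.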

[6] = test system: S. aureus Newman; test: as above
How it was run: as §2

[7] = test system: B. subtilis 168; test: as above
How it was run: as §2
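Throughout, for Bliss interaction score (quartile over a dose matrix): first quartile when negative (synergy) and third quartile when positive (antagonism).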

CNC(C)C1CCC(N)C(OC2C(N)CC(N)C(OC3OCC(C)(O)C(NC)C3O)C2O)O1 (configuration not stated) [Gentamicin] + COc1c(N2C[C@@H]3CCCN[C@@H]3C2)c(F)cc2c(=O)c(C(=O)O)cn(C3CC3)c12 [Moxifloxacin]
Settings | Bliss interaction score
[1] | -0.0566
[2] | 0.0666
[3] | 0.0561
[4] | 0.0845

Settings | fitness
[5], first compound 2 µg/mL, partner 0.005 µg/mL | ≥ 1
[5], first compound 2 µg/mL, partner 0.01 µg/mL | 0.987
[5], first compound 2 µg/mL, partner 0.02 µg/mL | 0.949
[5], first compound 2 µg/mL, partner 0.0312 µg/mL | 0.0909
[5], first compound 2 µg/mL, partner 0.0625 µg/mL | 0.0352
[5], first compound 2 µg/mL, partner 0.125 µg/mL | 0.0208
[5], first compound 4 µg/mL, partner 0.005 µg/mL | 0.999
[5], first compound 4 µg/mL, partner 0.01 µg/mL | 0.998
[5], first compound 4 µg/mL, partner 0.02 µg/mL | 0.987
[5], first compound 4 µg/mL, partner 0.0312 µg/mL | 0.062
[5], first compound 4 µg/mL, partner 0.0625 µg/mL | 0.0383
[5], first compound 4 µg/mL, partner 0.125 µg/mL | 0.0445
[5], first compound 8 µg/mL, partner 0.005 µg/mL | 0.972
[5], first compound 8 µg/mL, partner 0.01 µg/mL | 0.972
[5], first compound 8 µg/mL, partner 0.02 µg/mL | 0.925
[5], first compound 8 µg/mL, partner 0.0312 µg/mL | 0.0628
[5], first compound 8 µg/mL, partner 0.0625 µg/mL | 0.0435
[5], first compound 8 µg/mL, partner 0.125 µg/mL | 0.0398
[6], first compound 0.375 µg/mL, partner 0.0075 µg/mL | 0.733
[6], first compound 0.375 µg/mL, partner 0.015 µg/mL | 0.515
[6], first compound 0.375 µg/mL, partner 0.03 µg/mL | 0.153
[6], first compound 0.5 µg/mL, partner 0.0075 µg/mL | 0.801
[6], first compound 0.5 µg/mL, partner 0.015 µg/mL | 0.74
[6], first compound 0.75 µg/mL, partner 0.0075 µg/mL | 0.722
[6], first compound 0.75 µg/mL, partner 0.015 µg/mL | 0.544
[6], first compound 0.75 µg/mL, partner 0.03 µg/mL | 0.189
[6], first compound 1 µg/mL, partner 0.0075 µg/mL | 0.841
[6], first compound 1 µg/mL, partner 0.015 µg/mL | 0.776
[6], first compound 1.5 µg/mL, partner 0.015 µg/mL | 0.195
[6], first compound 1.5 µg/mL, partner 0.03 µg/mL | 0.0456
[6], first compound 2 µg/mL, partner 0.0075 µg/mL | 0.879
[6], first compound 2 µg/mL, partner 0.015 µg/mL | 0.777
[7], first compound 0.0625 µg/mL, partner 0.0625 µg/mL | 0.0368
[7], first compound 0.0625 µg/mL, partner 0.125 µg/mL | 0.048
[7], first compound 0.0625 µg/mL, partner 2 µg/mL | 0.0515
[7], first compound 0.0625 µg/mL, partner 4 µg/mL | 0.0389
[7], first compound 0.0625 µg/mL, partner 8 µg/mL | 0.0196
[7], first compound 0.125 µg/mL, partner 0.0625 µg/mL | 0.0582
[7], first compound 0.125 µg/mL, partner 0.125 µg/mL | 0.0573
[7], first compound 0.125 µg/mL, partner 2 µg/mL | 0.0401
[7], first compound 0.125 µg/mL, partner 4 µg/mL | 0.0418
[7], first compound 0.125 µg/mL, partner 8 µg/mL | 0.0222
[7], first compound 0.25 µg/mL, partner 0.0312 µg/mL | 0.0645
[7], first compound 0.25 µg/mL, partner 0.0625 µg/mL | 0.069
[7], first compound 0.25 µg/mL, partner 0.125 µg/mL | 0.069
[7], first compound 0.25 µg/mL, partner 2 µg/mL | 0.0498
[7], first compound 0.25 µg/mL, partner 4 µg/mL | 0.0517
[7], first compound 0.25 µg/mL, partner 8 µg/mL | 0.0301

CNC(C)C1CCC(N)C(OC2C(N)CC(N)C(OC3OCC(C)(O)C(NC)C3O)C2O)O1 (configuration not stated) [Gentamicin] + COc1ccc(C[C@H](N)C(=O)N[C@H]2[C@@H](O)[C@H](n3cnc4c(N(C)C)ncnc43)O[C@@H]2CO)cc1 [Puromycin]
Settings | Bliss interaction score
[1] | -0.289
[2] | 0.0455
[3] | -0.204
[4] | -0.278

Settings | fitness
[5], first compound 2 µg/mL, partner 1 µg/mL | 0.955
[5], first compound 2 µg/mL, partner 2 µg/mL | 0.915
[5], first compound 4 µg/mL, partner 1 µg/mL | 0.984
[5], first compound 8 µg/mL, partner 1 µg/mL | 0.906
[5], first compound 8 µg/mL, partner 4 µg/mL | 0.19
[6], first compound 0.5 µg/mL, partner 0.39 µg/mL | 0.979
[6], first compound 0.5 µg/mL, partner 0.78 µg/mL | ≥ 1
[6], first compound 0.5 µg/mL, partner 1.56 µg/mL | ≥ 1
[6], first compound 1 µg/mL, partner 0.39 µg/mL | ≥ 1
[6], first compound 1 µg/mL, partner 0.78 µg/mL | ≥ 1
[6], first compound 1 µg/mL, partner 1.56 µg/mL | ≥ 1
[6], first compound 2 µg/mL, partner 0.39 µg/mL | 0.994
[6], first compound 2 µg/mL, partner 0.78 µg/mL | ≥ 1
[6], first compound 2 µg/mL, partner 1.56 µg/mL | ≥ 1
[7], first compound 0.0625 µg/mL, partner 0.39 µg/mL | 0.889
[7], first compound 0.25 µg/mL, partner 0.39 µg/mL | 0.0531
[7], first compound 0.25 µg/mL, partner 0.78 µg/mL | 0.0448
[7], first compound 0.25 µg/mL, partner 1.56 µg/mL | 0.0402

fitness, [6], one replicate
Settings | first compound 0.375 µg/mL | first compound 0.75 µg/mL | first compound 1.5 µg/mL
partner 0.39 µg/mL | ≥ 1 | ≥ 1 | 0.973
partner 0.78 µg/mL | ≥ 1 | ≥ 1 | ≥ 1
partner 1.56 µg/mL | ≥ 1 | ≥ 1 | ≥ 1

CNC(C)C1CCC(N)C(OC2C(N)CC(N)C(OC3OCC(C)(O)C(NC)C3O)C2O)O1 (configuration not stated) [Gentamicin] + C[n+]1ccc(-c2cc[n+](C)cc2)cc1 [Paraquat]
Settings | Bliss interaction score
[1] | 0.0553
[2] | 0.0489
[3] | -0.0978
[4] | 0.109

Settings | fitness
[5], first compound 2 µg/mL, partner 1.5 µg/mL | 0.982
[5], first compound 2 µg/mL, partner 3 µg/mL | 0.99
[5], first compound 2 µg/mL, partner 6 µg/mL | 0.931
[5], first compound 4 µg/mL, partner 1.5 µg/mL | ≥ 1
[5], first compound 4 µg/mL, partner 3 µg/mL | 0.971
[5], first compound 4 µg/mL, partner 6 µg/mL | 0.932
[5], first compound 8 µg/mL, partner 1.5 µg/mL | 0.993
[5], first compound 8 µg/mL, partner 3 µg/mL | 0.902
[5], first compound 8 µg/mL, partner 6 µg/mL | 0.935
[6], first compound 0.5 µg/mL, partner 1.25 µg/mL | 0.957
[6], first compound 0.5 µg/mL, partner 2.5 µg/mL | 0.953
[6], first compound 0.5 µg/mL, partner 5 µg/mL | 0.928
[6], first compound 1 µg/mL, partner 1.25 µg/mL | 0.981
[6], first compound 1 µg/mL, partner 2.5 µg/mL | ≥ 1
[6], first compound 1 µg/mL, partner 5 µg/mL | 0.992
[6], first compound 2 µg/mL, partner 1.25 µg/mL | ≥ 1
[6], first compound 2 µg/mL, partner 2.5 µg/mL | ≥ 1
[6], first compound 2 µg/mL, partner 5 µg/mL | 0.963
[7], first compound 0.0625 µg/mL, partner 1.25 µg/mL | 0.865
[7], first compound 0.0625 µg/mL, partner 2.5 µg/mL | 0.864
[7], first compound 0.25 µg/mL, partner 1.25 µg/mL | 0.203
[7], first compound 0.25 µg/mL, partner 2.5 µg/mL | 0.0485
[7], first compound 0.25 µg/mL, partner 5 µg/mL | 0.0561

fitness, [6], one replicate
Settings | first compound 0.375 µg/mL | first compound 0.75 µg/mL | first compound 1.5 µg/mL
partner 1.25 µg/mL | 0.919 | 0.918 | 0.949
partner 2.5 µg/mL | 0.951 | 0.937 | 0.98
partner 5 µg/mL | 0.952 | 0.9 | 0.976

CNC(C)C1CCC(N)C(OC2C(N)CC(N)C(OC3OCC(C)(O)C(NC)C3O)C2O)O1 (configuration not stated) [Gentamicin] + Cc1cc(NS(=O)(=O)c2ccc(N)cc2)no1 [Sulfamethoxazol]
Settings | Bliss interaction score
[1] | 0.0873
[2] | -0.0274
[3] | 0.128
[4] | 0.0736

fitness
Settings | partner 1 µg/mL | partner 2 µg/mL | partner 4 µg/mL
[5], first compound 2 µg/mL | 0.942 | 0.942 | 0.962
[5], first compound 4 µg/mL | 0.973 | 0.977 | 0.967
[5], first compound 8 µg/mL | 0.978 | 0.968 | 0.951
[6], first compound 0.5 µg/mL | 0.948 | 0.936 | 0.981
[6], first compound 1 µg/mL | ≥ 1 | ≥ 1 | 0.999
[6], first compound 2 µg/mL | 0.98 | 0.986 | 1
[7], first compound 0.0625 µg/mL | 0.904 | 0.902 | 0.906
[7], first compound 0.25 µg/mL | – | – | 0.0278

one replicate
Settings | fitness
[6], first compound 0.375 µg/mL, partner 1 µg/mL | ≥ 1
[6], first compound 0.375 µg/mL, partner 2 µg/mL | 0.979
[6], first compound 0.375 µg/mL, partner 4 µg/mL | ≥ 1
[6], first compound 0.75 µg/mL, partner 1 µg/mL | 0.974
[6], first compound 0.75 µg/mL, partner 2 µg/mL | 0.926
[6], first compound 0.75 µg/mL, partner 4 µg/mL | ≥ 1
[6], first compound 1 µg/mL, partner 8 µg/mL | ≥ 1
[6], first compound 1.5 µg/mL, partner 1 µg/mL | ≥ 1
[6], first compound 1.5 µg/mL, partner 2 µg/mL | 0.975
[6], first compound 1.5 µg/mL, partner 4 µg/mL | 0.981
[6], first compound 2 µg/mL, partner 8 µg/mL | 0.975
[6], first compound 4 µg/mL, partner 2 µg/mL | 0.899
[6], first compound 4 µg/mL, partner 4 µg/mL | 0.691
[6], first compound 4 µg/mL, partner 8 µg/mL | 0.852
[7], first compound 0.0625 µg/mL, partner 0.5 µg/mL | 0.848
[7], first compound 0.125 µg/mL, partner 0.5 µg/mL | 0.975
[7], first compound 0.25 µg/mL, partner 0.5 µg/mL | 0.864
